Bridge positions count the residues as written; N and C are the ends.
Test system: neuroblastoma (Neuro-2a) tumor
Assay: In vivo MRI test of fibrin imaging in neuroblastoma tumor mouse model
Details: mice with neuroblastoma tumor; 25 μmol/kg iv.; T1 weighted MRI at 2T, 4 h post injection
Source text: Three groups of 5 mice each, inoculated with 2·10^6 neuroblastoma cells with PBS, were formed and tested as follows: • Group a: Reference compound 2, • Group b: Chelate Complex 1 • Group c: ProHance® (see Protocol)
At day-10 post tumor cells inoculation, at least 4 mice per group with similar tumor size (5-10 mm in diameter) were selected for the in vivo MRI tests. After pre-contrast MRI acquisition (T1 and T2 high resolution 2D spin-echo and 3D gradient echo images), the test compounds were administered (25 μmol/kg iv.) and MRI was performed at 4 h and 24 h post injection. Maximum signal intensity was measured in the entire tumor area and in each post contrast image covering the whole tumor and the signal was compared to the pre-contrast images. At the end of MRI exams, all animals were sacrificed and the tumor, blood, liver, kidneys and femoral bone were removed and prepared for Gd assay by ICP-AES. […]
The mean signal intensity was measured within a region of interest (ROI) including the entire tumor, drawn by an operator on each MR image using dedicated software (MR Research Systems Ltd, Surrey UK). Signal intensity enhancement (Enh %) was determined as: Enh%=100*(SIx(t)−SI0)/SI0 […]

“Chelated Complex 1: Gd chelated complex (four DTPA-Glu units on branched lysine linker) conjugated to the fibrin-binding peptide; MRI contrast agent (Ac-WQPCPAESWTFCWDPGGGK-NH2; disulfide 4-12; not fully specified (some residues); also: further groups not given here)” was tested, and the tumor signal enhancement was “significant tumor signal enhancement”.

Reference: patent US8466107B2, “Fibrin-binding peptides and conjugates thereof” (Bracco Imaging SpA, priority 2006, dated 2013)
